Data taken from ChEMBL document CHEMBL5506027, “Discovery of a Novel and Potent Cyclin-Dependent Kinase 8/19 (CDK8/19) Inhibitor for the Treatment of Cancer” (J Med Chem, 2024).

What was measured:
MV4-11 = experiment: Antiproliferative activity against human MV4-11 cells incubated for 5 days by CellTiter-Glo luminescent cell viability assay; type: functional, cell-based; details: MV4-11, 120 h
[1] = target: Cyclin-dependent kinase 8 (Homo sapiens, UniProt P49336); experiment: Inhibition of CDK8 (unknown origin) by HTRF assay
Sequence of Cyclin-dependent kinase 8 (P49336 whole entry): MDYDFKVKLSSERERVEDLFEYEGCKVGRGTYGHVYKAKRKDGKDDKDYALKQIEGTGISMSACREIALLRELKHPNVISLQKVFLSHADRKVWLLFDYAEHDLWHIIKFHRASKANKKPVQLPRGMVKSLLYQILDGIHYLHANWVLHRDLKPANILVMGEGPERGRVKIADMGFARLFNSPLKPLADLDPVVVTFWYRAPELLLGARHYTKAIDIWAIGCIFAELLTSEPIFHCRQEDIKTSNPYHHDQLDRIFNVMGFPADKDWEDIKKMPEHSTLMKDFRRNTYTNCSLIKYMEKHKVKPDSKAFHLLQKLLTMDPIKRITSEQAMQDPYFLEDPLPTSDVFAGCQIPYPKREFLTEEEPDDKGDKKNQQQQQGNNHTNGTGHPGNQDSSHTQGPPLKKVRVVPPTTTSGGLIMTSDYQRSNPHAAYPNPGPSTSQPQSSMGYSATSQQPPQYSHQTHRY

[2] = target: T1, Cyclin-dependent kinase 19 (Homo sapiens, UniProt Q9BWU1); experiment: Inhibition of CDK19 (unknown origin) by HTRF assay
T1 sequence (Q9BWU1 whole entry): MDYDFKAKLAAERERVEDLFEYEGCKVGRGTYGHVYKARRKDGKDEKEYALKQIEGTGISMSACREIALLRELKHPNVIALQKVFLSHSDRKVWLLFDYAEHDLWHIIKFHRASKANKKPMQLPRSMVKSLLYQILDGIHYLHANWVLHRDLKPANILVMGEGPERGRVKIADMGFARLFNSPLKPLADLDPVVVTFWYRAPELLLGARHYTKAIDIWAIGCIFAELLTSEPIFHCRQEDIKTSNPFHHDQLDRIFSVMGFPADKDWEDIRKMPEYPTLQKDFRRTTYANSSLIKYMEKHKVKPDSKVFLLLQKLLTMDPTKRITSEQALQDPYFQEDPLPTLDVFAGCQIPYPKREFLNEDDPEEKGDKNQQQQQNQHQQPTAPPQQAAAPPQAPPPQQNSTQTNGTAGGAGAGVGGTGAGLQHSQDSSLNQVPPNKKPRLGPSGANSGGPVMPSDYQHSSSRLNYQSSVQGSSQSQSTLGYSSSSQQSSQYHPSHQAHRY

CDK7/Cyclin H/MNAT1 = CDK7/Cyclin H/MNAT1 (Homo sapiens, UniProt P50613); experiment: Inhibition of CDK7/cyclinH/MAT1 (unknown origin) by ADP-Glo chemiluminescence assay; type: protein-complex assay
Sequence of CDK7/Cyclin H/MNAT1 (P51946 whole entry): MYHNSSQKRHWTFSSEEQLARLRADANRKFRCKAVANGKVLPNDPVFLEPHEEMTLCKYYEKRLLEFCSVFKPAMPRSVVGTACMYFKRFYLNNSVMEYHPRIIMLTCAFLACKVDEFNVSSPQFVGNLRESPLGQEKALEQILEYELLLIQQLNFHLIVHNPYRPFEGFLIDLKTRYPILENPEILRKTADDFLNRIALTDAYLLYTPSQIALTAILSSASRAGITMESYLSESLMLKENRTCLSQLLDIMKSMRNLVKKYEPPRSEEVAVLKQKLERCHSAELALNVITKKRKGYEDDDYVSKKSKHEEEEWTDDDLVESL
Sequence of CDK7/Cyclin H/MNAT1 (P50613 whole entry): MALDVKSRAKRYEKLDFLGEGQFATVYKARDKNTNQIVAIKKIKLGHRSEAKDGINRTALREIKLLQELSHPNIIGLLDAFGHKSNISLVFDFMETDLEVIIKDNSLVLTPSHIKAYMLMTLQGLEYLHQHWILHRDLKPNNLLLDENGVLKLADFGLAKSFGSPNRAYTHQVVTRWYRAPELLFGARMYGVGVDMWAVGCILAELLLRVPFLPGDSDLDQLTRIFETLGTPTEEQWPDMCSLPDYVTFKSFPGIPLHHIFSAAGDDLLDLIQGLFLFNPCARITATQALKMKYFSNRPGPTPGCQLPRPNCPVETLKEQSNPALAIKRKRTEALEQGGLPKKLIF
Sequence of CDK7/Cyclin H/MNAT1 (P51948 whole entry, further chain): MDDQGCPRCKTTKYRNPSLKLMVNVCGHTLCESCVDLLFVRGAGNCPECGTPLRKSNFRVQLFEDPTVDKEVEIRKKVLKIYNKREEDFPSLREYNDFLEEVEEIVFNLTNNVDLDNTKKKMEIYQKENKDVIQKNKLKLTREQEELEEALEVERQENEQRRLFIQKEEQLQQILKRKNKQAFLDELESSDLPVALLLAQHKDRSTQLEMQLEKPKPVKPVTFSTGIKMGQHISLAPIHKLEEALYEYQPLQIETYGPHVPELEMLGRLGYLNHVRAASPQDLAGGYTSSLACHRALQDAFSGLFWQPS

CDK2/Cyclin A2 = CDK2/Cyclin A2 (Homo sapiens, UniProt P24941); experiment: Inhibition of CDK2/cyclinA2 (unknown origin) by ADP-Glo chemiluminescence assay; type: protein-complex assay
[3] = Inhibition of CDK1/cyclinA2 (unknown origin) by ADP-Glo chemiluminescence assay; set-up: species or system Homo sapiens
[4] = target: Cyclin-dependent kinase 2/cyclin E1 (Homo sapiens, UniProt P24941); experiment: Inhibition of CDK2/cyclinE1 (unknown origin) by ADP-Glo chemiluminescence assay; type: protein-complex assay
[5] = target: T2, Cyclin-dependent kinase 5/CDK5 activator 1 (Homo sapiens, UniProt Q00535); experiment: Inhibition of CDK5/p25NCK (unknown origin) by ADP-Glo chemiluminescence assay; type: protein-complex assay
T2 sequence (Q00535 whole entry): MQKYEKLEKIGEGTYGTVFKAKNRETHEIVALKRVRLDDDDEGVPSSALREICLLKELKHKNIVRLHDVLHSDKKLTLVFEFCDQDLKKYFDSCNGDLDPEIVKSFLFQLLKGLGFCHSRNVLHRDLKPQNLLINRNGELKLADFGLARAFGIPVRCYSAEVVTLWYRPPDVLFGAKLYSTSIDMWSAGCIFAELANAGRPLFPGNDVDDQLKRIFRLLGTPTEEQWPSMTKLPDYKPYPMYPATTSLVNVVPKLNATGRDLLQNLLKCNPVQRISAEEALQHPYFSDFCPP
T2 sequence (Q15078 whole entry, further chain): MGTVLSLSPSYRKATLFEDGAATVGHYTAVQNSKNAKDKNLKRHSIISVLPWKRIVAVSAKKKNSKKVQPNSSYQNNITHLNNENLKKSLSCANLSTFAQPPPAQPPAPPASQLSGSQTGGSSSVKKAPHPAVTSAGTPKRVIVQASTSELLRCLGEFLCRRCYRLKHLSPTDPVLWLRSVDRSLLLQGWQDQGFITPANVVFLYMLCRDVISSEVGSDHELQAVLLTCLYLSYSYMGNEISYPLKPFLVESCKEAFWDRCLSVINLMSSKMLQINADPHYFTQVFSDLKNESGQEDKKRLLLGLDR

[6] = target: T2, Cyclin-dependent kinase 5/CDK5 activator 1; experiment: Inhibition of CDK5/p35NCK (unknown origin) by ADP-Glo chemiluminescence assay; type: protein-complex assay
CDK8/Cyclin C = CDK8/Cyclin C (Homo sapiens, UniProt P49336); experiment: Inhibition of CDK8/CyclinC (unknown origin) by ADP-Glo chemiluminescence assay; type: protein-complex assay
Sequence of CDK8/Cyclin C (P49336 whole entry): as the sequence (P49336 whole entry) above
Sequence of CDK8/Cyclin C (P24863 whole entry, further chain): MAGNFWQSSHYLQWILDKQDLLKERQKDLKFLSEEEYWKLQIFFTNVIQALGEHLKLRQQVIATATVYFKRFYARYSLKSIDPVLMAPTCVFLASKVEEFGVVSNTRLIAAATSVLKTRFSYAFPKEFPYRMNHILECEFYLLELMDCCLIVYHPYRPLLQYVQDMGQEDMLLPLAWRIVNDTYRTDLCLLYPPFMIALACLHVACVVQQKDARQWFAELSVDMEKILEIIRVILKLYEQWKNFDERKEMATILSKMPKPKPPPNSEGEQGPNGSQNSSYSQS

[7] = Selectivity ratio of IC50 for CDK7/CyclinH/MAT1 (unknown origin) to IC50 for CDK8/Cyclin C (unknown origin)
[8] = target: T1, Cyclin-dependent kinase 19; experiment: Inhibition of CDK19 (unknown origin) by ADP-Glo assay
[9] = target: Dual specificity protein kinase CLK1 (Homo sapiens, UniProt P49759); experiment: Inhibition of CLK1 (unknown origin) by ADP-Glo assay
[10] = target: Dual specificity protein kinase CLK2 (Homo sapiens, UniProt P49760); experiment: Inhibition of CLK2 (unknown origin) by ADP-Glo assay
[11] = target: Dual specificity protein kinase CLK4 (Homo sapiens, UniProt Q9HAZ1); experiment: Inhibition of CLK4 (unknown origin) by ADP-Glo assay
[12] = target: Serine/threonine-protein kinase pim-2 (Homo sapiens, UniProt Q9P1W9); experiment: Inhibition of PIM2 (unknown origin) by ADP-Glo assay
[13] = target: Casein kinase II subunit alpha' (Homo sapiens, UniProt P19784); experiment: Inhibition of CSNK2A2 (unknown origin) by ADP-Glo assay
Sequence of Casein kinase II subunit alpha' (P19784 whole entry, canonical isoform): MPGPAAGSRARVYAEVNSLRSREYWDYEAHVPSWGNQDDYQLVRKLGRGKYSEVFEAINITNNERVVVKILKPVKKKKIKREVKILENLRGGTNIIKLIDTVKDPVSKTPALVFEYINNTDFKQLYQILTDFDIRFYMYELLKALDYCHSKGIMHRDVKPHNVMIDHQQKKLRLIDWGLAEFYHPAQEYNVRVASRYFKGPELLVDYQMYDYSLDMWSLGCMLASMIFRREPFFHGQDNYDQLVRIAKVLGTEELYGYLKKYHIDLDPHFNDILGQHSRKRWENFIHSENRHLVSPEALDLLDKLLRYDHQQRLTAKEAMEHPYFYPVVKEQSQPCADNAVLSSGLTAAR

[14] = target: Casein kinase I isoform alpha (Homo sapiens, UniProt P48729); experiment: Inhibition of CSNK1A1 (unknown origin) by ADP-Glo assay
Sequence of Casein kinase I isoform alpha (P48729 whole entry, canonical isoform): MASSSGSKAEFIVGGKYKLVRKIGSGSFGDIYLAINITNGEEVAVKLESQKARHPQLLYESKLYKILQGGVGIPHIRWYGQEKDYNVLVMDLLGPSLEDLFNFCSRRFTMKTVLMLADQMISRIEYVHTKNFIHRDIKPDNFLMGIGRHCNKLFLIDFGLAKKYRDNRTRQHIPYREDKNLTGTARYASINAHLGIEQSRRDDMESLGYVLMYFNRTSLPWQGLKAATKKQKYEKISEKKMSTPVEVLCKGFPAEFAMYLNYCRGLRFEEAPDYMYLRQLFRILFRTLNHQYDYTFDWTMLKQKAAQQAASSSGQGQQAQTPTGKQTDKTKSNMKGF

[15] = target: Homeodomain-interacting protein kinase 3 (Homo sapiens, UniProt Q9H422); experiment: Inhibition of HIPK3 (unknown origin) by ADP-Glo assay
Sequence of Homeodomain-interacting protein kinase 3 (Q9H422 whole entry): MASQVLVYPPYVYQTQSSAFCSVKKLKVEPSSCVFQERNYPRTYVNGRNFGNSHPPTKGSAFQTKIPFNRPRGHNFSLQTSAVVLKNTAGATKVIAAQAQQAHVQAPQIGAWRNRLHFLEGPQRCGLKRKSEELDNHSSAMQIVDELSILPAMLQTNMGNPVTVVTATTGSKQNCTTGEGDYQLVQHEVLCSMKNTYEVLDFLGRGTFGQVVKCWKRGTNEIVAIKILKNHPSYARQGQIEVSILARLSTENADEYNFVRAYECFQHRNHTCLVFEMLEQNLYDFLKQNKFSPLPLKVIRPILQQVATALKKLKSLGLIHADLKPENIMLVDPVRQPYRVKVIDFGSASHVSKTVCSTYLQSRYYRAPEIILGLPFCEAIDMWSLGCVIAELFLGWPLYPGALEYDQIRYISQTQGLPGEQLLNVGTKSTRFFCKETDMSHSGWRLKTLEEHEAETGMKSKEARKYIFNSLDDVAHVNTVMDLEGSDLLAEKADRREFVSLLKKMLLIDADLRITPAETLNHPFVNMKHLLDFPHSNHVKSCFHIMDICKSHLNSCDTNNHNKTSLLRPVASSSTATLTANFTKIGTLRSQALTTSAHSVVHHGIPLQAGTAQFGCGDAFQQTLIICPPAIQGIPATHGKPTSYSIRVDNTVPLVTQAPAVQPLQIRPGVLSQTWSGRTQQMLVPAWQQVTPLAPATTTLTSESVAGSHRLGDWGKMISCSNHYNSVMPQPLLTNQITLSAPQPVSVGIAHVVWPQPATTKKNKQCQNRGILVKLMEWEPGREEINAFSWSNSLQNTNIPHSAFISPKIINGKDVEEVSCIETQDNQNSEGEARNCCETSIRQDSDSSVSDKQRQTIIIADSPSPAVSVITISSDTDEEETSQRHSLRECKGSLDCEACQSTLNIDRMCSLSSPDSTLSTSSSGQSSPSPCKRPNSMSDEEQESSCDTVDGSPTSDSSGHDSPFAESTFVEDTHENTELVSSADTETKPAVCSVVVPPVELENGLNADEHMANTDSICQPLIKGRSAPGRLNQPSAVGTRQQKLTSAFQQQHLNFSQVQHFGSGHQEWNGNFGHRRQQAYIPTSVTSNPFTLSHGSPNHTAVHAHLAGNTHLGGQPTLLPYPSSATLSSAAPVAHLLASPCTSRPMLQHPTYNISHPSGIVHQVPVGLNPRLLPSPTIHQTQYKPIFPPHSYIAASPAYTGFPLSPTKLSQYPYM

[16] = target: Dual specificity tyrosine-phosphorylation-regulated kinase 1A (Homo sapiens, UniProt Q13627); experiment: Inhibition of DYRK1A (unknown origin) by ADP-Glo assay
[17] = target: Rho-associated protein kinase 1 (Homo sapiens, UniProt Q13464); experiment: Inhibition of ROCK1 (unknown origin) by ADP-Glo assay
[18] = target: Serine/threonine-protein kinase haspin (Homo sapiens, UniProt Q8TF76); experiment: Inhibition of HASPIN (unknown origin) by ADP-Glo assay
[19] = target: Serine/threonine-protein kinase TAO1 (Homo sapiens, UniProt Q7L7X3); experiment: Inhibition of TAOK1 (unknown origin) by ADP-Glo assay
[20] = target: Mitogen-activated protein kinase 15 (Homo sapiens, UniProt Q8TD08); experiment: Inhibition of ERK8 (unknown origin) by ADP-Glo assay
Cytochrome P450 1A2 [21] = target: T3, Cytochrome P450 1A2 (Homo sapiens, UniProt P05177); experiment: Inhibition of CYP1A2 (unknown origin) in absence of NADPH; type: ADME
T3 sequence (P05177 whole entry): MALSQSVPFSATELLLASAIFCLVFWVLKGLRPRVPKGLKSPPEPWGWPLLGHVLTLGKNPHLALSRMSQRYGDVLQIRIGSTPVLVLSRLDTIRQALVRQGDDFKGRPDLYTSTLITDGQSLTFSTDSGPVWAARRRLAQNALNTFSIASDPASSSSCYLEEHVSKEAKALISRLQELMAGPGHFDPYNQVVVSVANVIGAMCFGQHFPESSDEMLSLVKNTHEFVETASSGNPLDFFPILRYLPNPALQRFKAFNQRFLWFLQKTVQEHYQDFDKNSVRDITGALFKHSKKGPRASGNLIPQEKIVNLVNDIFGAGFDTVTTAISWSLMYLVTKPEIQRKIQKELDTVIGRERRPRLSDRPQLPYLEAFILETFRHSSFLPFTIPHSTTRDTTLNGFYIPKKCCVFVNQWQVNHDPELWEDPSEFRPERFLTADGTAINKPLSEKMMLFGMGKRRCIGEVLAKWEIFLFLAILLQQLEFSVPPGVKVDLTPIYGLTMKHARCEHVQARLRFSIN

Cytochrome P450 1A2 [22] = target: T3, Cytochrome P450 1A2; experiment: Inhibition of CYP1A2 (unknown origin) preincubated for 30 mins in presence of NADPH; type: ADME
[23] = target: Voltage-gated inwardly rectifying potassium channel KCNH2 (Homo sapiens, UniProt Q12809); experiment: Inhibition of human ERG; type: toxicity
[24] = Clearance in mouse at 1 mg/kg, iv measured upto 24 hrs by LC-MS/MS anlaysis; type: ADME, organism-based; details: in vivo
[25] = Volume of distribution at steady state in mouse at 1 mg/kg, iv measured upto 24 hrs by LC-MS/MS anlaysis; type: ADME, organism-based; details: in vivo, read-out: Vdss
[26] = Half-life in mouse at 1 mg/kg, iv measured upto 24 hrs by LC-MS/MS anlaysis; type: ADME, organism-based; details: in vivo
[27] = Clearance in rat at 1 mg/kg, iv measured upto 24 hrs by LC-MS/MS anlaysis; type: ADME, organism-based; details: in vivo
[28] = Volume of distribution at steady state in rat at 1 mg/kg, iv measured upto 24 hrs by LC-MS/MS anlaysis; type: ADME, organism-based; details: in vivo, read-out: Vdss
[29] = Half-life in rat at 1 mg/kg, iv measured upto 24 hrs by LC-MS/MS anlaysis; type: ADME, organism-based; details: in vivo
[30] = Clearance in dog at 1 mg/kg, iv measured upto 24 hrs by LC-MS/MS anlaysis; type: ADME, organism-based, Canis lupus familiaris; details: in vivo
[31] = Volume of distribution at steady state in dog at 1 mg/kg, iv measured upto 24 hrs by LC-MS/MS anlaysis; type: ADME, organism-based, Canis lupus familiaris; details: in vivo, read-out: Vdss
[32] = Half-life in dog at 1 mg/kg, iv measured upto 24 hrs by LC-MS/MS anlaysis; type: ADME, organism-based, Canis lupus familiaris; details: in vivo
[33] = Dose normalized AUC in mouse at 5 mg/kg, po measured upto 24 hrs by LC-MS/MS analysis; type: ADME, organism-based; details: in vivo
[34] = Cmax in dog at 3 mg/kg, po measured upto 24 hrs by LC-MS/MS analysis; type: ADME, organism-based, Canis lupus familiaris; details: in vivo

Row | IC50 (MV4-11) [nM] | IC50 [1] [nM] | IC50 [2] [nM] | IC50 (CDK7/Cyclin H/MNAT1) [nM] | IC50 (CDK2/Cyclin A2) [nM] | IC50 [3] [nM] | IC50 [4] [nM] | IC50 [5] [nM] | IC50 [6] [nM] | IC50 (CDK8/Cyclin C) [nM] | IC50 [8] [nM] | IC50 [9] [nM] | IC50 [10] [nM] | IC50 [11] [nM] | IC50 [12] [nM] | IC50 [13] [nM] | IC50 [14] [nM] | IC50 [15] [nM] | IC50 [16] [nM] | IC50 [17] [nM] | Compound | further results
1 | 43.8 | 14.5 | 19.1 | 51 | 4.7 | 20.5 | 0.968 | 1.66 | 1.34 | 17.5 | 25.1 | 5.3 | 21 | 2.7 | 298 | 279 | 1390 | 132 | 332 | 717 | Cc1c(Br)c(Br)c2c3c1nc(N1CCNCC1)n3CCC2 [SEL-120 FREE BASE] | Ratio IC50 [7]: 2.9; IC50 [18]: 46 nM; IC50 [19]: > 10000 nM; IC50 [20]: 1340 nM; IC50 (Cytochrome P450 1A2 [21]): 160 nM; IC50 (Cytochrome P450 1A2 [22]): 40 nM; IC50 [23]: 700 nM; clearance [24]: 81 mL/min/kg; Vd [25]: 19.2 L/kg; half-life [26]: 3.01 h; clearance [27]: 246 mL/min/kg; Vd [28]: 32.3 L/kg; half-life [29]: 1.77 h; clearance [30]: 30 mL/min/kg; Vd [31]: 6.23 L/kg; half-life [32]: 2.7 h; AUC/dose [33]: 270 ng·h/mL; Cmax [34]: 215 ng/mL
2 | 5.7 | 2.08 | 2.49 | 197 | 42.6 | 236 | 31.4 | 87.4 | 194 | 7.5 | 25.1 | 8.2 | 14.3 | 2.9 | 124 | 64.9 | 132 | 503 | 158 | 353 | FC(F)c1c(Br)c(Br)cc2c1nc(N1CCNCC1)n2C1CCOCC1 | IC50 [18]: 13.6 nM; IC50 [19]: 6680 nM; IC50 [20]: 59.7 nM; IC50 (Cytochrome P450 1A2 [21]): 8580 nM; IC50 (Cytochrome P450 1A2 [22]): 4580 nM; IC50 [23]: 5800 nM; clearance [24]: 14 mL/min/kg; Vd [25]: 5.96 L/kg; half-life [26]: 5.04 h; clearance [27]: 70 mL/min/kg; Vd [28]: 13.3 L/kg; half-life [29]: 2.53 h; clearance [30]: 12 mL/min/kg; Vd [31]: 4.31 L/kg; half-life [32]: 4.75 h
